The record followed here is patent US9120779B2, “Inhibitors of HCV NS5A” (PRESIDIO PHARMACEUTICALS, INC., priority 2008, dated 2015).

Molecules are shown by their SMILES.

One experiment deals with HCV genotype 1b replicon in Huh 7 cells. Nature of the experiment: HCV replicon assay (luciferase readout, 1b_Huh-Luc/Neo-ET cell line). It counts as cell-based. The following applies: Hepatitis C virus, Huh-7, 72 h, read-out: Inhibition of HCV genotype 1b, Table 1, 72 h incubation. Summed up: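 Huh 7 cells carrying a bicistronic genotype 1b luciferase replicon treated with compound in triplicate for 72 h. Replicon level read as luciferase activity (Bright-Glo), expressed as % of control; EC50 from a sigmoidal Hill-slope fit, repeated several times.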
As for `COC(=O)N[C@H](C(=O)N1CCC[C@H]1c1ncc(-c2ccc([C@H]3CC[C@H](c4cnc([C@@H]5CCCN5C(=O)[C@@H](c5ccccc5)N(C)C)[nH]4)CC3)cc2)[nH]1)C(C)C` [compound 940], the EC50 is less than 1 nM.

Take `COC(=O)N[C@H](C(=O)N1CCC[C@H]1c1ncc(-c2ccc([C@H]3CC[C@H](c4cnc([C@@H]5CCCN5C(=O)[C@H](C(C)C)N(C)C)[nH]4)CC3)cc2)[nH]1)C(C)C` [compound 941]: the EC50 was less than 1 nM.

Consider `COC(=O)N[C@H](C(=O)N1CCC[C@H]1c1ncc(-c2ccc([C@H]3CC[C@H](c4cnc([C@@H]5CCCN5C(=O)[C@@H](NC(=O)OC)C5CC5)[nH]4)CC3)cc2)[nH]1)C1CC1` [compound 942], for which the EC50 is less than 1 nM.

As for `CC[C@H](C)[C@H](NC(=O)OC)C(=O)N1CCC[C@H]1c1ncc(-c2ccc([C@H]3CC[C@H](c4cnc([C@@H]5CCCN5C(=O)[C@@H](NC(=O)OC)[C@@H](C)CC)[nH]4)CC3)cc2)[nH]1` [compound 943], the EC50 is less than 1 nM.

For `COC(=O)N[C@H](C(=O)N1CCC[C@H]1c1ncc(-c2ccc([C@H]3CC[C@H](c4cnc([C@@H]5CCCN5C(=O)[C@H](NC(=O)NC5CCOCC5)C(C)C)[nH]4)CC3)cc2)[nH]1)C(C)C` [compound 944], the EC50 was less than 1 nM.

Take `COC(=O)N[C@H](C(=O)N1CCC[C@H]1c1ncc(-c2ccc([C@H]3CC[C@H](c4cnc([C@@H]5CCCN5C(=O)[C@@H](NC(=O)OC5CCOCC5)C(C)C)[nH]4)CC3)cc2)[nH]1)C(C)C` [compound 945]: the EC50 was less than 1 nM. On the same count and under the same terms, next, `COC(=O)N[C@H](C(=O)N1CCC[C@H]1c1ncc(-c2ccc([C@H]3CC[C@H](c4cnc([C@@H]5CCCN5C(=O)[C@H](NC(=O)OC5CCOCC5)C(C)C)[nH]4)CC3)cc2)[nH]1)C(C)C` [compound 946]: less than 1 nM; `COC(=O)N[C@H](C(=O)N1CCC[C@H]1c1ncc(-c2ccc([C@H]3CC[C@H](c4cnc([C@@H]5CCCN5C(=O)[C@@H](c5ccccc5)N5CCCCC5)[nH]4)CC3)cc2)[nH]1)C(C)C` [compound 947]: less than 1 nM; `COC(=O)N[C@H](C(=O)N1CCC[C@H]1c1ncc(-c2ccc([C@H]3CC[C@H](c4cnc([C@@H]5CCCN5C(=O)[C@H](NC(=O)OC)c5ccccc5)[nH]4)CC3)cc2)[nH]1)C(C)C` [compound 2001]: less than 1 nM. As to `COC(=O)N[C@H](C(=O)N1CCC[C@H]1c1ncc([C@H]2CC[C@H](c3ccc(-c4cnc([C@@H]5CCCN5C(=O)[C@H](NC(=O)OC)c5ccccc5)[nH]4)cc3)CC2)[nH]1)C(C)C` [compound 2002], the EC50 was less than 1 nM. Turning to `COC(=O)N[C@H](C(=O)N1CCC[C@H]1c1ncc(-c2ccc([C@H]3CC[C@H](c4cnc([C@@H]5CCCN5C(=O)[C@H](NC(=O)N5CCC(O)CC5)c5ccccc5)[nH]4)CC3)cc2)[nH]1)C(C)C` [compound 2003], the EC50 was less than 1 nM. On to `CNC(=O)N[C@H](C(=O)N1CCC[C@H]1c1ncc(-c2ccc([C@H]3CC[C@H](c4cnc([C@@H]5CCCN5C(=O)[C@H](NC(=O)OC)c5ccccc5)[nH]4)CC3)cc2)[nH]1)C(C)C` [compound 2004], for which the EC50 was less than 1 nM.

The experiment is the same for the next values; noted with them: Hepatitis C virus, Huh-7, 72 h, read-out: Inhibition of HCV genotype 1b, Table 4, 72 h incubation.
Consider `O=C(N[C@@H](C(=O)N1CCC[C@H]1c1nc2ccc(-c3ccc(-c4ccc5nc([C@@H]6CCCN6C(=O)[C@H](NC(=O)C6CC6)c6ccccc6)[nH]c5c4)cc3)cc2[nH]1)c1ccccc1)C1CC1` [compound 930], for which the EC50 is less than 1 nM.

As for `COC(=O)N[C@H](C(=O)N[C@@H](C)c1nc2ccc(-c3ccc(-c4ccc5nc([C@H](C)NC(=O)[C@@H](NC(=O)OC)C(C)C)[nH]c5c4)cc3)cc2[nH]1)C(C)C` [compound 932], the EC50 was less than 1 nM.

Turning to `COC(=O)N[C@H](C(=O)N1CCC[C@H]1c1nc2ccc(-c3ccc(-c4ccc5nc([C@@H]6CCCN6C(=O)[C@H](C(C)C)N(C)C)[nH]c5c4)cc3)cc2[nH]1)C(C)C` [compound 933], the EC50 is less than 1 nM. Still for that read-out and setting: then `COC(=O)N[C@H](C(=O)N1CCC[C@H]1c1nc2ccc(-c3ccc(-c4ccc5nc([C@@H]6CCCN6C(=O)[C@@H](C(C)C)N(C)C)[nH]c5c4)cc3)cc2[nH]1)C(C)C` [compound 934], with less than 1 nM; and `COC(=O)N[C@H](C(=O)N1CCC[C@H]1c1nc2ccc(-c3ccc(-c4ccc5nc([C@H](C)NC(=O)[C@H](C(C)C)N(C)C)[nH]c5c4)cc3)cc2[nH]1)C(C)C` [compound 935], with less than 1 nM.

Regarding `COC(=O)N[C@H](C(=O)N1CCC[C@H]1c1nc2ccc(-c3ccc(-c4ccc5nc([C@H](C)NC(=O)[C@@H](C(C)C)N(C)C)[nH]c5c4)cc3)cc2[nH]1)C(C)C` [compound 936], the EC50 is less than 1 nM. Still for that read-out and setting: then `COC(=O)N[C@H](C(=O)N[C@@H](C)c1nc2ccc(-c3ccc(-c4ccc5nc([C@@H]6CCCN6C(=O)[C@H](C(C)C)N(C)C)[nH]c5c4)cc3)cc2[nH]1)C(C)C` [compound 937], with 1 to 9.9 nM. On to `COC(=O)N[C@H](C(=O)N[C@@H](C)c1nc2ccc(-c3ccc(-c4ccc5nc([C@@H]6CCCN6C(=O)[C@@H](C(C)C)N(C)C)[nH]c5c4)cc3)cc2[nH]1)C(C)C` [compound 938], for which the EC50 is less than 1 nM. The same measure, in the same setting: then `COC(=O)N[C@H](C(=O)N1CCC[C@H]1c1nc2ccc(-c3ccc(-c4ccc5nc([C@H](C)NC(=O)[C@@H](c6ccccc6)N(C)C)[nH]c5c4)cc3)cc2[nH]1)C(C)C` [compound 939], with less than 1 nM.

Still in this experiment, the particulars now being: Hepatitis C virus, Huh-7, 72 h, read-out: Inhibition of HCV genotype 1b, Table 5, 72 h incubation.
In the case of `COC(=O)N[C@H](C(=O)N1CCC[C@H]1c1ncc(C23CCC(c4ccc(-c5cnc([C@@H]6CCCN6C(=O)[C@@H](NC(=O)N6CCCCC6)C(C)C)[nH]5)cc4)(CC2)CC3)[nH]1)C(C)C` [compound 648], the EC50 was in the range of 10 to 999 nM. Same read-out and setting: next, `COC(=O)N[C@H](C(=O)N1CCC[C@H]1c1ncc(C23CCC(c4ccc(-c5cnc([C@@H]6CCCN6C(=O)[C@@H](NC(=O)N6CCC(O)CC6)C(C)C)[nH]5)cc4)(CC2)CC3)[nH]1)C(C)C` [compound 649]: less than 1 nM; `COC(=O)N[C@H](C(=O)N1CCC[C@H]1c1ncc(C23CCC(c4ccc(-c5cnc([C@@H]6CCCN6C(=O)[C@@H](NC(=O)N6CCC(=O)CC6)C(C)C)[nH]5)cc4)(CC2)CC3)[nH]1)C(C)C` [compound 650]: 1 to 9.9 nM. With `COC(=O)N[C@H](C(=O)N1CCC[C@H]1c1ncc(C23CCC(c4ccc(-c5cnc([C@@H]6CCCN6C(=O)[C@@H](NC(=O)N6CC[C@H](O)C6)C(C)C)[nH]5)cc4)(CC2)CC3)[nH]1)C(C)C` [compound 651], the EC50 fell in the range of 1 to 9.9 nM. As for `COC(=O)N[C@H](C(=O)N1CCC[C@H]1c1ncc(C23CCC(c4ccc(-c5cnc([C@@H]6CCCN6C(=O)[C@@H](NC(=O)N6CCC[C@H]6CO)C(C)C)[nH]5)cc4)(CC2)CC3)[nH]1)C(C)C` [compound 652], the EC50 was less than 1 nM. The same measure, in the same setting: next, `COC(=O)N[C@H](C(=O)N1CCC[C@H]1c1ncc(-c2ccc(C34CCC(c5cnc([C@@H]6CCCN6C(=O)[C@@H](NC(=O)OC)C6CC6)[nH]5)(CC3)CC4)cc2)[nH]1)C1CC1` [compound 908]: less than 1 nM; `COC(=O)N[C@H](C(=O)N1CCC[C@H]1c1ncc(-c2ccc(C34CCC(c5cnc([C@@H]6CCCN6C(=O)[C@@H](NC(=O)OC)[C@H](C)O)[nH]5)(CC3)CC4)cc2)[nH]1)[C@H](C)O` [compound 909]: 1 to 9.9 nM. Still for that read-out and setting: then `CCC(CC)[C@H](NC(=O)OC)C(=O)N1CCC[C@H]1c1ncc(-c2ccc(C34CCC(c5cnc([C@@H]6CCCN6C(=O)[C@@H](NC(=O)OC)C(CC)CC)[nH]5)(CC3)CC4)cc2)[nH]1` [compound 910], with less than 1 nM; and `COC(=O)N[C@H](C(=O)N1CCC[C@H]1c1ncc(-c2ccc(C34CCC(c5cnc([C@@H]6CCCN6C(=O)[C@H](C(C)C)N(C)C(=O)OC)[nH]5)(CC3)CC4)cc2)[nH]1)C(C)C` [compound 911], with less than 1 nM; and `COC(=O)N[C@H](C(=O)N1CCC[C@H]1c1ncc(C23CCC(c4ccc(-c5cnc([C@@H]6CCCN6C(=O)[C@H](C(C)C)N(C)C(=O)OC)[nH]5)cc4)(CC2)CC3)[nH]1)C(C)C` [compound 912], with less than 1 nM. On the same count and under the same terms, next, `COC(=O)N(C)[C@H](C(=O)N1CCC[C@H]1c1ncc(-c2ccc(C34CCC(c5cnc([C@@H]6CCCN6C(=O)[C@H](C(C)C)N(C)C(=O)OC)[nH]5)(CC3)CC4)cc2)[nH]1)C(C)C` [compound 913]: less than 1 nM; `COC(=O)N[C@H](C(=O)N1CCC[C@H]1c1ncc(C23CCC(c4ccc(-c5cnc([C@@H]6CCCN6C(=O)[C@@H](NC6CCOCC6)C(C)C)[nH]5)cc4)(CC2)CC3)[nH]1)C(C)C` [compound 914]: 10 to 999 nM; `COC(=O)N[C@H](C(=O)N1CCC[C@H]1c1ncc(C23CCC(c4ccc(-c5cnc([C@@H]6CCCN6C(=O)[C@H](NC6CCOCC6)C(C)C)[nH]5)cc4)(CC2)CC3)[nH]1)C(C)C` [compound 915]: less than 1 nM.

Consider `COC(=O)N[C@@H](C)C(=O)N1CCC[C@H]1c1ncc(-c2ccc(C34CCC(c5cnc([C@@H]6CCCN6C(=O)[C@H](C)NC(=O)OC)[nH]5)(CC3)CC4)cc2)[nH]1` [compound 916], for which the EC50 is less than 1 nM.

Take `COC(=O)N[C@H](C)C(=O)N1CCC[C@H]1c1ncc(-c2ccc(C34CCC(c5cnc([C@@H]6CCCN6C(=O)[C@@H](C)NC(=O)OC)[nH]5)(CC3)CC4)cc2)[nH]1` [compound 917]: the EC50 was less than 1 nM. Still for that read-out and setting: then `COC(=O)N[C@H](C(=O)N1CCC[C@H]1c1ncc(-c2ccc(C34CCC(c5cnc([C@@H]6CCCN6C(=O)[C@@H](Nc6ncccn6)C(C)C)[nH]5)(CC3)CC4)cc2)[nH]1)C(C)C` [compound 918], with less than 1 nM.

On to `CC(C)[C@@H](C(=O)N1CCC[C@H]1c1ncc(-c2ccc(C34CCC(c5cnc([C@@H]6CCCN6C(=O)[C@H](C(C)C)N(C)C)[nH]5)(CC3)CC4)cc2)[nH]1)N(C)C` [compound 919], for which the EC50 lay within 10 to 999 nM. The same measure, in the same setting: next, `CC(C)[C@H](C(=O)N1CCC[C@H]1c1ncc(-c2ccc(C34CCC(c5cnc([C@@H]6CCCN6C(=O)[C@@H](C(C)C)N(C)C)[nH]5)(CC3)CC4)cc2)[nH]1)N(C)C` [compound 920]: 10 to 999 nM.
